The target of one data set is T1, EcPsuK (Escherichia coli, UniProt Z9FTQ0OEG4).
T1 construct: N-terminal His6-SUMO removed with Ulp1; host E. coli BL21(DE3)
T1 sequence (Z9FTQ0OEG4 1-313): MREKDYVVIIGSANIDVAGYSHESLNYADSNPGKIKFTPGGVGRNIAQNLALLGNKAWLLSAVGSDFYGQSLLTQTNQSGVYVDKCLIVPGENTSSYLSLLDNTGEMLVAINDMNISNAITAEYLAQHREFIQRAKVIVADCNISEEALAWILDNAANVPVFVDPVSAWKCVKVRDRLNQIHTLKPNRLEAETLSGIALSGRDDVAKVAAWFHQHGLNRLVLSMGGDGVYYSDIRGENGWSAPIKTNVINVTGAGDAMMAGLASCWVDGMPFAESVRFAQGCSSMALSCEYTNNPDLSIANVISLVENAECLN
The data set can be described thus: X-ray crystallography, […] Å. In kind it is binding. Particulars: co-crystallised with ADP and Ψ, soaked with 1 mM Ψ and 4 mM ADP, MgCl2, pH 7.0, NaCl-purified protein; ADP not seen; nucleoside site; turnover also measured with ATP.

Data set [1] deals with the molecule itself. Nature of the data set: SEC; HiLoad 16/60 Superdex 200-pg, 10 mM Tris-HCl pH 8.0, 100 mM NaCl or 100 mM KCl; molecular weight of the purified protein against the calculated monomer.

With `O=c1[nH]cc([C@@H]2O[C@H](CO)[C@@H](O)[C@H]2O)c(=O)[nH]1` [pseudouridine], the “X-ray crystallography, 2.30 Å” value on EcPsuK was “we determined the crystal structure of EcPsuK complexed with pseudouridine through co-crystallization”.

B1: Escherichia coli pseudouridine kinase PsuK (enzyme, E. coli BL21 (DE3), UniProt P30235 1-313, looked up)
chain: MREKDYVVIIGSANIDVAGYSHESLNYADSNPGKIKFTPGGVGRNIAQNLALLGNKAWLLSAVGSDFYGQSLLTQTNQSGVYVDKCLIVPGENTSSYLSLLDNTGEMLVAINDMNISNAITAEYLAQHGEFIQRAKVIVADCNISEEALAWILDNAANVPVFVDPVSAWKCVKVRDRLNQIHTLKPNRLEAETLSGIALSGREDVAKVAAWFHQHGLNRLVLSMGGDGVYYSDISGESGWSAPIKTNVINVTGAGDAMMAGLASCWVDGMPFAESVRFAQGCSSMALSCEYTNNPDLSIANVISLVENAECLN
notes: E. coli pseudouridine kinase PsuK (YeiC), amplified from the E. coli BL21 (DE3) genome, Uniprot ID A0A140N873, aa 1-313 (313 residues, calculated 33.6 kDa); modelled from Arg2 to Asn308 in the apo structure; Cloned by BamHI and XhoI into a modified pET-28a with an Ulp1 cleavage site; also called EcPsuK; YeiC; source: E. coli BL21 (DE3), purified (Ni-NTA, Ulp1 cleavage, second Ni-NTA, Superdex …)
In general, stoichiometry N refers to a count of units in the complex or per binding partner. With B1, the “stoichiometry N” value in data set [1] was 2.

The values above are taken from PMC9247573 (Frontiers in Microbiology, 2022).
